Source: patent publication US20220354764A1, “METHODS FOR PROMOTING HAIR GROWTH” (Follica, Inc., priority 2018, published 2022)

Legend:
[1] = Minoxidil blood serum concentration after needling device treatment plus 2%/5% MTS (Example 1); type: in vivo, human
Method: A multicenter randomized study was conducted to assess the safety and efficacy of treatment methods using a needling device in conjunction with minoxidil in adult males with androgenetic alopecia (AGA). The study involved 14 subjects, male, age 18-40 years, with a diagnosis of androgenetic alopecia. Data for 46 additional subjects is being gathered. The subjects were randomized and then completed treatment across 12 weeks (total of 3, 6, or 12 treatments with the needling device per randomization assignment, n=20 per arm). A final evaluation was conducted on Day 85 with no additional follow up required.
On Day 0, subjects were randomized to receive treatment with the needling device on a weekly (12 treatments), bi-weekly (6 treatments), or monthly (once every 4 weeks, for 3 total treatments) basis for 12 weeks, in a 1:1:1 ratio according to a centrally maintained randomization table. Treatment of the vertex (including transitional areas) with the needling device was initiated on Day 1.
Subjects in the monthly arm received needling device treatment once every 4 weeks, for 3 procedures total (e.g., needling device treatment on Days 1, 29, 57). Subjects in the bi-weekly arm received needling device treatment once every 2 weeks, for 6 procedures total (e.g., needling device treatment on Days 1, 15, 29, 43, 57, and 71). Subjects in the weekly arm received needling device treatment once every week, for 12 procedures total (e.g., needling device treatment on Days 1, 8, 15, 22, 29, 36, 43, 50, 57, 64, 71, and 78).
During needling treatments, the translation speed of the device, which is the speed at which the needling device was glided over the affected skin area, was 2 cm/second, while keeping the device perpendicular to the surface to help achieve a needle strike of 0.8 mm (+/−0.2 mm) micro-needling depth. The device needle array has 12 needles and the number of array oscillations per second was set at 120. The treatment width was 0.9 cm. Two overlapping passes were made in vertical and horizontal directions. As a result, 1600 needle strikes per cm^2 were performed. The micro-needling device was glided across the affected area of the skin such that each pass across the area of skin aligned with the prior pass across the skin, without gaps of skin between the passes, in a “mow the lawn” approach. Each pass of the micro-needling device started with a gliding start and a smooth retraction of the device from the skin area following each pass. The micro-needling device was applied to the skin area with consistent, light pressure, allowing the device to glide along the skin. The configuration of needles in the needle array consists of 2 offset rows of 6 microneedles.
A post-treatment visit was required following each subject's first treatment with the needling device across all study arms to confirm wound closure. The post-treatment visit was performed 24-36 hours following the first treatment with the needling device. If adequate wound closure and skin normality was not achieved, the subject would return for a second post-treatment visit 24-36 hours following the first post-treatment visit. Once adequate wound closure was confirmed, subjects were provided study drug to be applied in accordance with the instructions provided herein (vertex, including transitional areas). The very first application of study drug was performed in-clinic during the first post-treatment visit in which wound closure is confirmed. […]

[2] = test system: adult males with androgenetic alopecia (AGA); assay: Hair count by macrophotography after needling device treatment plus minoxidil (Example 1); type: in vivo, human; conditions: needling device plus 2%/5% MTS, 12 weeks; comparison: 12% increase in Olsen 2002 and 2007
From the text: A macrophotography procedure as referred to herein includes identifying the designated photography site, clipping hair within targeted photography site to a length of 1 mm, and creating a needlestick tattoo in the center of the targeted photography site for future orientation (pressure was applied until any bleeding stops), mapping the position of the tattoo, and recording the measurements on the provided documentation. The procedure further includes using the tattoo as a reference point take the first Baseline photograph without the contact plate, and again, using the tattoo as a reference point, performing remaining Baseline photography with the contact plate. From the identified designated photography site, the width of each hair is determined using an electronic caliber measurement. All hairs greater than […] are classified as terminal hairs. […]
A macrophotography procedure as described above was carried out for each subject, using a single, circular 1.9 cm^2 site in the leading edge of an actively balding area of the vertex as the designated photography site. Total Area Hair Count (TAHC), Target Area Hair Width (TAHW) and Target Area Hair Density/Darkness (TAHD) were assessed via quantitative image analysis to determine non-vellus hair count (primary and secondary endpoint) and total hair count (non-vellus and vellus hair, secondary endpoint). […]

Nc1cc(N2CCCCC2)nc(N)[n+]1[O-] [minoxidil]
serum level average, Day 1 ([1]; Day 1, needling device plus MTS regimen): 1.29 ng/mL | serum level average, Day 29 ([1]; Day 29, needling device plus MTS regimen): 0.99 ng/mL | serum level average, Day 57 ([1]; Day 57, needling device plus MTS regimen): 0.79 ng/mL | serum level average, Day 85 ([1]; Day 85, final study visit, needling device plus MTS regimen): 0.65 ng/mL | maximum serum level recorded in the study ([1]; individual maximum, needling device plus 2%/5% MTS step-up): 5.5 ng/mL | subjects showing an increase in non-vellus target area hair count greater than prior large minoxidil studies [2]: 79%
